Results reported in patent US20110166128A1, “Diaryldiazepine Prodrugs for the Treatment of Neurological and Psychological Disorders” (priority 2010, published 2011).

Experiment: physchem
Source text: At pH 4 and 5, 0.1 M citrate buffers were used, while for pH 6, 7 and 8 a set of 0.1M phosphate buffers were used. Each buffer also contained 0.2 M NaCl. No cosolvents or other potentially solubilizing components were included. Buffer preparations were subdivided in order to individually test the solubility of only one material in a given buffer sample.

With `CCCCCCCCCCCCC(C)(C)C(=O)OC[N+]1(C)CCN(C2=Nc3ccccc3Nc3sc(C)cc32)CC1.[I-]` [Compound 18, 1-(((2,2-dimethyltetradecanoyl)oxy)methyl)-1-methyl-4-(2-methyl-10H-benzo[b]thieno[2,3-e][1,4]diazepin-4-yl)piperazin-1-ium iodide] the “variation in solubility across the pH range studied” value was “less than 2 fold” and the solubility (pH 4, aqueous buffer, thermodynamic from solid) was 0.1 to 0.2 ng/mL.
